According to publication PMC7730441, “Acetylcholinesterase and butyrylcholinesterase inhibitory activities of khellactone coumarin derivatives isolated from Peucedanum japonicum Thurnberg” (Scientific Reports, 2020):
Where two headings read alike, the source gives them in different places.

Assays:
[1] = test system: BChE; conditions: cited from earlier work
[2] = molecular target: T1, AChE (Type VI-S; from Electrophorus electricus) (Electrophorus electricus, UniProt O42275); assay: biochemical; conditions: for remaining activity at 10 µM: read-out: Residual activity at 10 µM (%) AChE, inhibitor 10 µM; for SI = IC50 of AChE/ IC50 of BChE: selectivity index
T1 construct: AChE (Type VI-S; from Electrophorus electricus); purchased Sigma-Aldrich Type VI-S (catalogue number not given)
T1 sequence (O42275 24-633): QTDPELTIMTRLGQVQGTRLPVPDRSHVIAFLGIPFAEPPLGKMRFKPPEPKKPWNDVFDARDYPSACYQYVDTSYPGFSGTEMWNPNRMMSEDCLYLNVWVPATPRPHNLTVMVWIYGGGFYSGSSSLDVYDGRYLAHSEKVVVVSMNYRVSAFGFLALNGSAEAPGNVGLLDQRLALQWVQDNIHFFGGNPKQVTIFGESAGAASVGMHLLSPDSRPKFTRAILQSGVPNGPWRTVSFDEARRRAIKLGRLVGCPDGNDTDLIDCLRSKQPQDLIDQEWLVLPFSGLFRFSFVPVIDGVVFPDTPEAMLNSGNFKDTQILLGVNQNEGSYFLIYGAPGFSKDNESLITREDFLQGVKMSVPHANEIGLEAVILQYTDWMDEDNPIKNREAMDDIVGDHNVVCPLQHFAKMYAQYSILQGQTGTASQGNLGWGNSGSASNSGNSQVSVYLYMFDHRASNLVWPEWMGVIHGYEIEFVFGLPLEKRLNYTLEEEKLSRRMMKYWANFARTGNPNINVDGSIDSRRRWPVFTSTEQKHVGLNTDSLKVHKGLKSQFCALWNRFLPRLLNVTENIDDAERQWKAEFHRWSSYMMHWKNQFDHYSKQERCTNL
Protocol: (§1) AChE assays were performed as described by Ellman et al.[41] with slight modifications. […] DTNB was used for color development, caused by reaction between it and thiocholine (a product of AChE). For inhibitory assays, compounds were preincubated with AChE for 15 min prior to ATCI and DTNB addition. BChE activity was assayed using the same method, but BTCI was used instead of ATCI.
(§2) Inhibitions of the activities of AChE, BChE, MAO-A, and MAO-B by the 15 compounds were investigated at an inhibitor concentration of 10 µM. IC50 values were also determined. […] The inhibition types and Ki values were determined using Lineweaver–Burk Plots and secondary plots.

[3] = molecular target: T2, BChE (from equine serum) (Equus caballus, UniProt P81908); assay: biochemical; conditions: 15 min preincubation
T2 construct: BChE (from equine serum); purchased Sigma-Aldrich; host or cells: equine serum
T2 sequence (P81908 whole entry): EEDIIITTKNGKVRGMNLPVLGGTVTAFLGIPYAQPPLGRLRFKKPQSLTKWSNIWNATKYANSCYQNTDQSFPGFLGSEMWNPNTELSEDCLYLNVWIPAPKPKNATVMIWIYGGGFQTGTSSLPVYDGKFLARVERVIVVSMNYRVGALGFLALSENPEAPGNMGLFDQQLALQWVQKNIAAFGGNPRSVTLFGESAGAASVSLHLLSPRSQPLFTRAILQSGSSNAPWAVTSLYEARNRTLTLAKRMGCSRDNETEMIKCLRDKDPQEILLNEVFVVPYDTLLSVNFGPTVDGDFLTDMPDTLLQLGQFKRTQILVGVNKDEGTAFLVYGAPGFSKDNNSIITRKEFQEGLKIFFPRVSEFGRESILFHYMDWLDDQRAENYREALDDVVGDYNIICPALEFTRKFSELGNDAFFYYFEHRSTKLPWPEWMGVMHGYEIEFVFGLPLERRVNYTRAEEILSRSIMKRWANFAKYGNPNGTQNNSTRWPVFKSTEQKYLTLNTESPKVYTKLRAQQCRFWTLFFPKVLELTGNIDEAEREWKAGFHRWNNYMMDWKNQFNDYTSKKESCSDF
Protocol: as §1, §2

[4] = molecular target: T3, recombinant human MAO-A (Homo sapiens, UniProt P21397); assay: MAO-A inhibition assay (kynuramine); format: biochemical; conditions: for remaining activity at 10 µM: read-out: Residual activity at 10 µM (%) MAO-A
T3 construct: purchased Sigma-Aldrich
T3 sequence (P21397 1-527): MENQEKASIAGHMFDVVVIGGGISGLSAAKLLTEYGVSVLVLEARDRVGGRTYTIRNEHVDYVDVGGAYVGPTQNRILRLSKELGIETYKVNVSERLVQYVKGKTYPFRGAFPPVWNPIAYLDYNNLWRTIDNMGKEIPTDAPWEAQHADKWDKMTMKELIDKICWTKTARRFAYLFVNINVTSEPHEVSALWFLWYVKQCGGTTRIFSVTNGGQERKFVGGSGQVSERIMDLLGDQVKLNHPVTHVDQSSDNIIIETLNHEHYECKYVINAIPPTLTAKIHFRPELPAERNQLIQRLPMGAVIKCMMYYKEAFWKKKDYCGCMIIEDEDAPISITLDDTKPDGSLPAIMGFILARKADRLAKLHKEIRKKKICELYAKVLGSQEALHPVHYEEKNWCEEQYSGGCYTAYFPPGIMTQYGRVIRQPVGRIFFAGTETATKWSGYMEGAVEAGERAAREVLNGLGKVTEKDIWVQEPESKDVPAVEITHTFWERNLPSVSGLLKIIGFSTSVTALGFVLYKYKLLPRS
Protocol: as §1, §2

[5] = molecular target: T4, recombinant human MAO-B (Homo sapiens, UniProt P27338); assay: MAO-B inhibition assay (benzylamine); format: biochemical; conditions: for remaining activity at 10 µM: read-out: Residual activity at 10 µM (%) MAO-B
T4 construct: purchased Sigma-Aldrich
T4 sequence (P27338 1-520): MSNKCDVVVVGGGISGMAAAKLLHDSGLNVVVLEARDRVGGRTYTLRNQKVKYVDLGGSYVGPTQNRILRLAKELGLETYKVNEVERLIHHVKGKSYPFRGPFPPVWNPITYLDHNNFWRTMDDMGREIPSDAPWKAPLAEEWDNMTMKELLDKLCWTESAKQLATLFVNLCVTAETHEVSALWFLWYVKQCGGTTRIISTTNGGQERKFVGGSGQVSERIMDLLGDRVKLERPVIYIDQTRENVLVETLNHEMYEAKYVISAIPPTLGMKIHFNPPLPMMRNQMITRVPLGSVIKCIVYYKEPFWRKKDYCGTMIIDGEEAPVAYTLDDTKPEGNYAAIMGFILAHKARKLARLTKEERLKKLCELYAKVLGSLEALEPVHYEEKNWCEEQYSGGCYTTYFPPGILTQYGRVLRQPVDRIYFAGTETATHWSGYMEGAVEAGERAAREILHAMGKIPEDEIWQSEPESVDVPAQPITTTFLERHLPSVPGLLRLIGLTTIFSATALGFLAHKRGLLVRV
Protocol: as §1, §2

[6] = test system: AChE; conditions: cited from earlier work
[7] = 15 min preincubation, read-out: IC50 (µM) AChE

Molecule | IC50 [2, 7] | remaining activity at 10 µM ([2]; 15 min preincubation) | IC50 ([3]; read-out: IC50 (µM) BChE) | remaining activity at 10 µM ([4]; inhibitor 10 µM) | remaining activity at 10 µM ([5]; inhibitor 10 µM) | SI = IC50 of AChE/ IC50 of BChE [2] | other results
O=c1c(O)c(-c2ccc(O)cc2)oc2cc(O)cc(O)c12 [kaempferol] |  |  |  |  |  |  | IC50 ([1]; from Cleistocalyx operculatus): 62.5 µM
CCC(C)C(=O)O[C@@H]1c2c(ccc3ccc(=O)oc23)OC(C)(C)[C@@H]1OC(C)=O (stereo partly drawn) [PJ3, hyuganin] | > 40 µM | 97.2 ± 8.3% | > 40 µM | 81.2 ± 3.68% | 83.7 ± 2.33% |  | 
CCC(C)C(=O)O[C@@H]1c2c(ccc3ccc(=O)oc23)OC(C)(C)[C@@H]1OC(C)=O (stereo partly drawn) [hyuganin C] |  |  |  |  |  |  | IC50 ([1]; from Mutellina purpurea): 38.9 µM
C[C@@H]1O[C@@H](O[C@@H]2[C@@H](O)[C@H](OCCc3ccc(O)c(O)c3)O[C@H](COC(=O)/C=C/c3ccc(O)c(O)c3)[C@H]2O)[C@H](O)[C@H](O)[C@H]1O [isoacteoside] |  |  |  |  |  |  | IC50 ([1]; from H. procumbens): 29.7 µM
COc1ccc(CCCc2ccc(O)cc2)c(O)c1 [broussonin A] |  |  |  |  |  |  | IC50 ([1]; from Anemarrhena asphodeloidesa): 7.5 µM
O=c1ccc2ccc(O)c(O)c2o1 [daphnetin] |  |  |  |  |  |  | IC50 ([6]; from Artemisia capillaris): 11.6 µM; IC50 [1]: 8.66 µM
C/C=C(/C)C(=O)O[C@@H]1c2c(ccc3ccc(=O)oc23)OC(C)(C)[C@@H]1OC(=O)/C(C)=C\C [PJ7, anomalin] |  | 75.4 ± 5.72% |  |  |  | < 0.45 | IC50 [2]: 17.9 ± 5.59 µM; IC50 ([3]; IC50 (µM) BChE): > 40 µM; remaining activity at 10 µM [4]: 74 ± 1.16%; remaining activity at 10 µM [5]: 73.8 ± 8.23%
C/C=C(/C)C(=O)O[C@H]1[C@H](O)c2cc3ccc(=O)oc3cc2OC1(C)C [4′-hydroxy Pd–C-III] |  |  |  |  |  |  | IC50 ([6]; from Angelica decursiva): 1.09 µM; IC50 ([1]; from A. decursiva): 5.78 µM
C/C=C(/C)C(=O)OC1c2c(ccc3ccc(=O)oc23)OC(C)(C)C1OC(=O)CC(C)C (stereo not drawn) [PJ11, 3′-isovaleryl-4′-angeloylkhellactone] | > 40 µM | 88.1 ± 1.35% | > 40 µM | 75.4 ± 0.3% | 89.1 ± 1.36% |  | 
corenone B |  |  |  |  |  |  | IC50 ([1]; converted from μg/mL, from Niphogeton dissecta): 49.5 µM; IC50 BChE ([1]; from Niphogeton dissecta): 10.9 µg/mL
CC(C)=CC(=O)O[C@@H]1c2c(ccc3ccc(=O)oc23)OC(C)(C)[C@@H]1OC(=O)CC(C)C [PJ9, 3′-isovaleryl-4′-senecioylkhellactone] | 36.1 ± 0.66 µM | 86.9 ± 9.92% | 12.5 ± 2.82 µM | 80.6 ± 5.02% | 75 ± 8.42% | 2.89 | 
C/C=C(/C)C(=O)O[C@@H]1[C@H](OC(=O)C=C(C)C)c2c(ccc3ccc(=O)oc23)OC1(C)C [PJ6, calipteryxin] | 25.6 ± 4.5 µM | 76.3 ± 6.46% | > 40 µM | 86.1 ± 1.93% | 63.1 ± 2.75% | < 0.64 | 
C/C=C(/C)C(=O)O[C@@H]1c2c(ccc3ccc(=O)oc23)OC(C)(C)[C@@H]1OC(=O)C(C)CC (stereo partly drawn) [PJ12] | 29 ± 1.15 µM | 58.3 ± 5.37% | > 40 µM | 78.9 ± 3.98% | 72.4 ± 3.7% | < 0.73 | 
O=c1ccc2cc(O)c(O)cc2o1 [esculetin] |  |  |  |  |  |  | IC50 ([6]; from Artemisia capillaris): 6.13 µM; IC50 [1]: 9.29 µM
CCC(C)C(=O)O[C@@H]1c2c(ccc3ccc(=O)oc23)OC(C)(C)[C@@H]1OC(=O)C=C(C)C (stereo partly drawn) [PJ10, 3′-senecioyl-4′-(2-methylbutyryl)khellactone] | > 40 µM | 86.4 ± 5.23% | 10.2 µM | 92.1 ± 5.58% | 70.9 ± 2.61% | > 3.92 | 
CC(=O)O[C@@H]1[C@H](OC(=O)C=C(C)C)c2c(ccc3ccc(=O)oc23)OC1(C)C [PJ1, Isosamidin] | > 40 µM | 92.1 ± 1.7% | > 40 µM | 86 ± 5.47% | 85 ± 0.57% |  | 
CC(C)=CC(=O)O[C@@H]1c2c(ccc3ccc(=O)oc23)OC(C)(C)[C@@H]1OC(=O)C=C(C)C [PJ4, 3′,4′-disenecioylkhellactone] | 21.3 ± 7.69 µM | 85.4 ± 7.52% | 10.7 µM | 100.3 ± 0.39% | 95.6 ± 4.8% | 1.99 | 
CC(C)=CC(=O)O[C@@H]1[C@H](OC(=O)CC(C)C)c2c(ccc3ccc(=O)oc23)OC1(C)C [PJ8, 3′-senecioyl-4′-isovalerylkhellactone] | 31.6 ± 4.4 µM | 97 ± 1.4% | > 40 µM | 79.5 ± 2.05% | 68.5 ± 2.1% | < 0.79 | 
CC(C)CC(=O)O[C@@H]1c2c(ccc3ccc(=O)oc23)OC(C)(C)[C@@H]1OC(=O)CC(C)C [PJ14, 3′,4′-diisovalerylkhellactone] | 28.1 ± 0.33 µM | 51.5 ± 4.5% | > 40 µM | 77 ± 5.4% | 66.1 ± 5.23% | < 0.70 | 
Pteryxin [PJ2] |  |  |  |  |  |  | Residual activity at 10 µM (%) AChE ([2]; inhibitor 10 µM, 15 min preincubation): 73.4 ± 11.3%; Residual activity at 10 µM (%) BChE ([3]; inhibitor 10 µM): 87.6 ± 7.14%; Residual activity at 10 µM (%) MAO-A ([4]; inhibitor 10 µM): 85.4 ± 3.80%; Residual activity at 10 µM (%) MAO-B ([5]; inhibitor 10 µM): 79.7 ± 3.47%; IC50 ([1]; converted from μg/mL, from M. purpurea): 33.5 µM; IC50 BChE ([1]; from M. purpurea): 12.96 µg/mL
